Reference: patent US10351534B2, “Use of 3-carboxy-N-ethyl-N,N-dimethylpropan-1-aminium salts in the treatment of cardiovascular disease” (JSC GRINDEKS, priority 2011, dated 2019)
Marks after values point to notes of the source that are not given here.

Assays:
isolated rat heart = assay: Isolated rat heart infarction study (after p.o. treatment); type: in vivo; conditions: for Infarct size, % of control: 20 mg/kg p.o. daily, isolated Wistar rat heart, 60 min occlusion, 150-min reperfusion, mean±s.e.m. of 9-10 animals; for decrease of infarct size: 20 mg/kg p.o., isolated rat heart infarction model, versus control
Procedure: Fifty male, 10 weeks old Wistar rats weighing 200-250 g were housed under standard conditions (21-23° C., 12 h light-dark cycle) with unlimited access to food (R3 diet, Lactamin AB, Sweden) and water.
Rats were adapted to local conditions for two weeks before the start of treatment. Meldonium dihydrate at a dose of 20 mg/kg, gamma-butyrobetaine at a dose of 20 mg/kg and 3-carboxy-N-ethyl-N,N-dimethylpropan-1-aminium salts at dose of 20 mg/kg were administered p.o. daily for 8 weeks. Control rats received water.
The isolated rat heart experiment was performed essentially as described earlier (Liepinsh et al., J. Cardiovasc. Pharmacol. 2006; 48(6):314-9). Twenty-four hours after the last drug administration hearts were excised and retrogradely perfused via the aorta at a constant pressure with oxygenated Krebs-Henseleit buffer at 37° C. The heart rate, left ventricle end-diastolic pressure and left ventricle developed pressure were continuously recorded. Coronary flow was measured using an ultrasound flow detector (HSE) and the PowerLab 8/30 system from ADInstruments. The hearts were perfused for 20 min to stabilize the hemodynamic functions and then occlusion was performed for 60 min by constricting threads through a plastic tube. Successful occlusion was confirmed by a coronary flow decrease of about 40 percent. Reperfusion was achieved by releasing the threads. At the end of the 150-min reperfusion period, the risk zone was delineated with 0.1% methylene blue. The hearts were then sectioned transversely from the apex to the base in five slices 2 mm in thickness and incubated in 1% triphenyltetrazolium chloride in phosphate buffer (pH 7.4, 37° C.) for 10 min to stain viable tissue red and necrotic tissue white. Computerized planemetric analysis of Sony A900 photographs was performed using Image-Pro Plus 6.3 software to determine the area at risk and area of necrosis expressed as a % of the left ventricle. The obtained values were then used to calculate the infarct size (IS) as a % of risk area according to the formula: Infarct Size=Area of Necrosis/Area at Risk×100%.
The anti-infarction effect of examined substances was investigated in an isolated rat heart infarction model. During occlusion of left coronary artery, the coronary flow in all experimental groups was decreased for 40% (from 11 ml/min to 7 ml/min). Moreover, the drop of developed left ventricular pressure for 50% was observed. […] In reperfusion stage, coronary flow, developed left ventricular pressure, ±dp/dt values were recovered till about 80% of control level. There were no significant differences between control and treatment groups.

[1] = s.c.; cited from earlier work

Compound: CC[N+](C)(C)CCCC(=O)O.O=C([O-])c1cc(=O)[nH]c(=O)[nH]1 [3-carboxy-N-ethyl-N,N-dimethylpropan-1-aminium 2,6-dioxo-1,2,3,6-tetrahydropyrimidine-4-carboxylate]
- Infarct size, % of control (isolated rat heart): 60.6 ± 6.7*^,#,$ % of control
- decrease of infarct size (isolated rat heart): 39.4%

Compound: C[N+](C)(C)NCCC(=O)[O-] [Meldonium dihydrate, 3-(2,2,2-Trimethylhydrazinium) propionate dihydrate, reference compound]
- Infarct size, % of control (isolated rat heart): 117.9 ± 7.9 % of control

Compound: CC[N+](C)(C)CCCC(=O)O.O=C([O-])/C=C/C(=O)O [3-carboxy-N-ethyl-N,N-dimethylpropan-1-aminium (2E)-3-carboxyacrylate]
- Infarct size, % of control (isolated rat heart): 46.5 ± 7.0*^,#,$ % of control
- decrease of infarct size (isolated rat heart): 53.5%

Compound: C[N+](C)(C)CCCC(=O)[O-] [Gamma-butyrobetaine, γ-Butyrobetaine, reference compound]
- Infarct size, % of control (isolated rat heart): 87.6 ± 11.4 % of control
- decrease of infarct size (isolated rat heart): 12.4%
- LD50 [1]: > 7000 mg/kg

Compound: CC[N+](C)(C)CCCC(=O)O [3-carboxy-N-ethyl-N,N-dimethylpropan-1-aminium dihydrogen phosphate]
- Infarct size, % of control (isolated rat heart): 56.1 ± 4.4*^,#,$ % of control
- decrease of infarct size (isolated rat heart): 43.9%

Compound: 3-carboxy-N-ethyl-N,N-dimethylpropan-1-aminium 2-(acetyloxy)benzoate
- Infarct size, % of control (isolated rat heart): 61.6 ± 6.7*^,#,$ % of control
- decrease of infarct size (isolated rat heart): 38.4%

Compound: CC[N+](C)(C)CCCC(=O)O.O=C([O-])CCC(=O)O [3-carboxy-N-ethyl-N,N-dimethylpropan-1-aminium 3-carboxypropanoate]
- Infarct size, % of control (isolated rat heart): 62.9 ± 4.7*^,#,$ % of control
- decrease of infarct size (isolated rat heart): 37.1%
